Assay results from patent US20090318461A1, “CRYSTALLINE POLYMORPHISM OF 5-METHYL-2-(PIPERAZIN-1-YL) BENZENESULFONIC ACID” (priority 2006, published 2009).

What was measured:
cardiomyocytes = conditions: cited from earlier work
[1] = Measurement of moisture sorption at each relative humidity (water vapor sorption apparatus SGA-100); format: physicochemical; conditions: for moisture sorption (weight increase) at relative humidity 50%: 50% RH; for weight change when humidity was reduced from 95% RH to 5% RH after moisture absorption: humidity decrease 95% RH to 5% RH; for hygroscopicity: from moisture sorption isotherm
Description: In the present invention, when moisture sorption at each relative humidity becomes not more than 0.03% in 5 min, or when 3 hours have passed at each relative humidity, the range of relative humidity being from 0% to 95%, the humidity is increased or decreased at 5% intervals, and the moisture sorption isotherms at each relative humidity is obtained gravimetrically by measuring the mass change of a sample.
The above-mentioned moisture sorption can be measured using, for example, SGA-100 type water vapor sorption apparatus (manufactured by VTI) as shown in the Examples. While the error in the relative humidity values depends on the performance of the apparatus, it is about ±1% using this apparatus.
The “moisture sorption” in the present invention refers to the values calculated by the following equation:
moisture sorption (%)=((RM−DM)/DM))*100
wherein DM: sample weight (mg) after sufficient drying at relative humidity 0% RM: sample weight (mg) in the equilibrium state at various relative humidities
For moisture sorption isotherms, when weight variation under each relative humidity condition becomes not more than 0.03% in 5 min, or when 3 hours have passed at each relative humidity, the range of relative humidity being from 0% to 95%, the humidity is increased or decreased at 5% intervals, and the moisture sorption isotherms at each relative humidity is obtained gravimetrically by measuring the mass change of a sample. The “RH” in the preset Examples means “relative humidity”.
5-Methyl-2-(piperazin-1-yl)benzenesulfonic acid monohydrate was dried for 60 min by heating in a sample booth at 80° C. under nitrogen substitution. The sample was used as sample 7 (type-I anhydrate crystal), and measured for moisture sorption from 5% RH.
The sample 2 (type-II anhydrate crystal) obtained in Example 2 was dried for 60 min by heating in a sample booth at 80° C. under nitrogen substitution, and measured for moisture sorption from 5% RH.

[2] = Thermal analysis (DSC822e) of monohydrate crystals; format: physicochemical; conditions: 25-300° C., 20° C./min, dry nitrogen gas
Description: In Examples 3, 4 and Experimental Examples 5, 6, each crystal forms was confirmed by powder X-ray diffractometer (manufactured by Bruker) GADDS detector system and thermal analysis equipment (manufactured by Mettler-Toledo) DSC822e system.
For thermal analysis, the measurement was performed in a dry nitrogen gas stream (50 mL/min) from 25° C. to 300° C. at a temperature rise rate of 20° C./min.
Using the solids obtained in Examples 3 and 4 as sample 8 (type-II monohydrate crystal) and sample 9 (type-III monohydrate crystal), respectively, the thermal analysis was performed under the following conditions.
apparatus: DSC822e manufactured by Metter-Toledo temperature rise rate: 20° C./min atmosphere: dry nitrogen gas 50 mL/min measurement temperature: 25-300° C.

[3] = humidity increase from 5% RH to 95% RH

Cc1ccc(N2CCNCC2)c(S(=O)(=O)O)c1 [compound A, 5-methyl-2-(piperazin-1-yl)benzenesulfonic acid]
suppression of excessive influx of calcium ions into cardiomyocytes (cardiomyocytes): remarkably suppresses

Cc1ccc(N2CCNCC2)c(S(=O)(=O)O)c1 [type-I anhydrate crystal, 5-methyl-2-(piperazin-1-yl)benzenesulfonic acid anhydrate]
moisture sorption (weight increase) at relative humidity 50% ([1]; humidity increase from 5% RH to 95% RH, listed as sample 7): about 6.0% | weight change when humidity was reduced from 95% RH to 5% RH after moisture absorption [1]: weight change was not observed | relative humidity from which moisture absorption was shown [1, 3]: 10 % RH

Cc1ccc(N2CCNCC2)c(S(=O)(=O)O)c1 [type-II anhydrate crystal, 5-methyl-2-(piperazin-1-yl)benzenesulfonic acid anhydrate]
moisture sorption in the range of 0-50% RH ([1]; 0-50% RH, humidity increase from 5% RH to 95% RH): about 2.0% | moisture sorption (weight increase) at relative humidity 50% [1, 3]: not more than 2% | weight increase around 60% RH ([1]; around 60% RH, humidity increase from 5% RH to 95% RH): about 6.5% | hygroscopicity [1]: less hygroscopic | hygroscopicity ([1]; listed as sample 2): hardly present | weight change when humidity was reduced from 95% RH to 5% RH after moisture absorption [1]: weight change was not observed

Cc1ccc(N2CCNCC2)c(S(=O)(=O)O)c1 [type-II monohydrate crystal, 5-methyl-2-(piperazin-1-yl)benzenesulfonic acid monohydrate]
crystal stability by thermal analysis (no noticeable endothermic and exothermic peaks up to around 80° C.) [2]: stable
